Results from ChEMBL document CHEMBL1201862, “PubChem BioAssay data set” (2004).
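These data come from cells grown in 96-well plates and exposed to compound for 48 hours at five concentrations. GI50: concentration for 50% inhibition of growth.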 Active and inactive are the calls of the source. No stated cut-off is given here; in the data, active = GI50 up to about 1.1 µM and inactive = higher.

What was measured:
Test in all cases: inhibition of tumour cell growth, NCI panel, 48 h
786-0 = system: 786-0
HL-60 = system: HL-60
HOP-92 = system: HOP-92
LOX IMVI = system: LOX IMVI
HCT-15 = system: HCT-15
IGROV-1 = system: IGROV-1
SF-268 = system: SF-268
OVCAR-8 = system: OVCAR-8
RXF 393 = system: RXF 393
SN12C = system: SN12C
DMS-273 = system: DMS-273
KM-20L2 = system: KM-20L2
CAKI-1 = system: CAKI-1
CCRF-CEM = system: CCRF-CEM
OVCAR-5 = system: OVCAR-5
XF498 = system: XF498
UACC-62 = system: UACC-62
OVCAR-3 = system: OVCAR-3
NCI-H23 = system: NCI-H23
RPMI-8226 = system: RPMI-8226
SK-OV-3 = system: SK-OV-3
SNB-19 = system: SNB-19
TK-10 = system: TK-10
SNB-75 = system: SNB-75
UACC-257 = system: UACC-257
Malme-3M = system: Malme-3M
OVCAR-4 = system: OVCAR-4
DMS-114 = system: DMS-114
LXFL 529 = system: LXFL 529
U-251 = system: U-251
HOP-62 = system: HOP-62
SF-539 = system: SF-539
HOP-18 = system: HOP-18
ACHN = system: ACHN
EKVX = system: EKVX
MOLT-4 = system: MOLT-4
SK-MEL-5 = system: SK-MEL-5
SK-MEL-2 = system: SK-MEL-2
A549 = system: A549
UO-31 = system: UO-31
KM12 = system: KM12
M14 = system: M14
NCI-H460 = system: NCI-H460
NCI-H522 = system: NCI-H522
COLO 205 = system: COLO 205
K562 = system: K562
SF-295 = system: SF-295
SW-620 = system: SW-620
A498 = system: A498
HT-29 = system: HT-29
NCI-H226 = system: NCI-H226
SK-MEL-28 = system: SK-MEL-28

O=[N+]([O-])c1nccn1CC(O)c1ccccc1 (configuration not stated)
GI50 (786-0): > 100 µM (inactive) | GI50 (HL-60): > 100 µM (inactive) | GI50 (HOP-92): > 100 µM (inactive) | GI50 (LOX IMVI): > 100 µM (inactive) | GI50 (HCT-15): > 100 µM | GI50 (IGROV-1): > 100 µM (inactive) | GI50 (SF-268): > 100 µM (inactive) | GI50 (OVCAR-8): > 100 µM (inactive) | GI50 (RXF 393): > 100 µM (inactive) | GI50 (SN12C): > 100 µM (inactive) | GI50 (DMS-273): > 100 µM (inactive) | GI50 (KM-20L2): > 100 µM (inactive) | GI50 (CAKI-1): > 100 µM (inactive) | GI50 (CCRF-CEM): > 100 µM (inactive) | GI50 (OVCAR-5): > 100 µM (inactive) | GI50 (XF498): > 100 µM (inactive) | GI50 (UACC-62): > 100 µM (inactive) | GI50 (OVCAR-3): > 100 µM (inactive) | GI50 (NCI-H23): > 100 µM (inactive) | GI50 (RPMI-8226): > 100 µM (inactive) | GI50 (SK-OV-3): > 100 µM (inactive) | GI50 (SNB-19): > 100 µM (inactive) | GI50 (TK-10): > 100 µM (inactive) | GI50 (SNB-75): > 100 µM (inactive) | GI50 (UACC-257): > 100 µM (inactive) | GI50 (Malme-3M): > 100 µM (inactive) | GI50 (OVCAR-4): > 100 µM (inactive) | GI50 (DMS-114): > 100 µM (inactive) | GI50 (LXFL 529): > 100 µM (inactive) | GI50 (U-251): > 100 µM (inactive) | GI50 (HOP-62): > 100 µM (inactive) | GI50 (SF-539): > 100 µM (inactive) | GI50 (HOP-18): > 100 µM (inactive) | GI50 (ACHN): > 100 µM (inactive) | GI50 (EKVX): > 100 µM (inactive) | GI50 (MOLT-4): > 100 µM (inactive) | GI50 (SK-MEL-5): > 100 µM (inactive) | GI50 (SK-MEL-2): > 100 µM (inactive) | GI50 (A549): > 100 µM (inactive) | GI50 (UO-31): > 100 µM (inactive) | GI50 (KM12): > 100 µM (inactive) | GI50 (M14): > 100 µM (inactive) | GI50 (NCI-H460): > 100 µM (inactive) | GI50 (NCI-H522): > 100 µM (inactive) | GI50 (COLO 205): > 100 µM (inactive) | GI50 (K562): > 100 µM (inactive) | GI50 (SF-295): > 100 µM (inactive) | GI50 (SW-620): > 100 µM (inactive) | GI50 (A498): > 100 µM (inactive) | GI50 (HT-29): > 100 µM (inactive) | GI50 (NCI-H226): > 100 µM (inactive) | GI50 (SK-MEL-28): > 100 µM (inactive)
